Data reported in publication PMC11714206, “Massively Parallel Screening of Toll/Interleukin‐1 Receptor (TIR)‐Derived Peptides Reveals Multiple Toll‐Like Receptors (TLRs)‐Targeting Immunomodulatory Peptides” (Advanced Science, 2024).

Molecular target: T1, MyD88^TIR (Homo sapiens, UniProt Q99836)
T1 construct: MyD88 (residues 148–296); 6xHis; made in house; host or cells: E. coli BL21 (DE3)
Experiment: T‐Surf phage library (P8 and P3) selection against MyD88^TIR, four rounds, NGS read counts
Assay type: binding
Settings: for P3_MyD88 Rank (after) / P3_MyD88 Rank (before): P3 library; for P8_MyD88 Rank (after) / P8_MyD88 Rank (before): P8 library; for Population: 4th round of selection against MyD88 TIR, share of NGS reads
Outline: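 Read counts come from NGS of phage pools after the fourth selection round, barcoded by 20-cycle PCR and filtered for quality ≥30. Each round: phage incubated 1 h at RT on immobilised TIR protein (5 µg mL^−1, BSA-blocked), washed, HCl-eluted and amplified in E. coli TG1.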

[1] = selection against MyD88 TIR, rank by count after grouping
[2] = selection against MyD88 TIR, rank by count before grouping
[3] = 4R selection against MyD88, rank after grouping
[4] = 4R selection against MyD88, rank before grouping
[5] = P8_MyD88: rank by count after grouping
[6] = P8_MyD88: rank by count before grouping
[7] = P8_MyD88 pool: P8 T-Surf phage library
[8] = P3_MyD88: rank by count after grouping
[9] = P3_MyD88: rank by count before grouping
[10] = P8_MyD88: rank by NGS read count after grouping
[11] = P8_MyD88: rank by NGS read count before grouping
[12] = P3_MyD88 pool: P3 T-Surf phage library
[13] = selection against MyD88, rank by count after grouping
[14] = selection against MyD88, rank by count before grouping
[15] = selection against MyD88, rank after grouping
[16] = selection against MyD88, rank before grouping

T1 sequence (Q99836 148-296): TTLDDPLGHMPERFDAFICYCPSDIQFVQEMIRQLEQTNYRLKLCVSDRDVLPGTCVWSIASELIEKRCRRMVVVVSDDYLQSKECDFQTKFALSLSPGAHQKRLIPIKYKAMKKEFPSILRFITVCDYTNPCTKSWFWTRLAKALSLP

Sequence: LVAHELLKKMKIFATI
- P3_MyD88 Rank (after) [1]: 232
- P3_MyD88 Rank (before) [2]: 2275

Sequence: YASYDDNDYYWVTHVLLSR
- P8_MyD88 Rank (after) [3]: 638
- P8_MyD88 Rank (before) [4]: 1808

Sequence: YFRNESEFIQEIVQWV
- Rank (after) [5]: 118
- Rank (before) [6]: 125
- Population [7]: 0.0162%

Sequence: NQWRNSRTAAANLSGW
- Rank (after) [8]: 122
- Rank (before) [9]: 3476

Sequence: NGHENEIIKEIVETIV
- P3_MyD88 Rank (after) [1]: 205
- P3_MyD88 Rank (before) [2]: 3381

Sequence: DFSHFWLFEAGGDAD
- Rank (after) [10]: 946
- Rank (before) [11]: 2377

Sequence: DWVLDYLLPNLERPAG
- Rank (after) [5]: 424
- Rank (before) [6]: 2396

Sequence: NHHLDLPRGKAIKPEILG
- Population [12]: 0.00524%

Sequence: NERVHVWSSKAKSLVG
- Rank (after) [8]: 443
- Rank (before) [9]: 3453

Sequence: YLKWGYPWFWDRLP
- Rank (after) [8]: 142
- Rank (before) [9]: 572

Sequence: SSFREDLWRLLELSKK
- Population [12]: 0.00437%

Sequence: DPQDLDWLYERLVSLF
- Population [7]: 0.00617%

Sequence: YASSSWALNELLEILDAKETM
- Rank (after) [5]: 456
- Rank (before) [6]: 1901

Sequence: DPQDLEWFYERLVILF
- Rank (after) [5]: 446
- Rank (before) [6]: 2849

Sequence: YKLALHFRDWLLGAYI
- P8_MyD88 Rank (after) [13]: 742
- P8_MyD88 Rank (before) [14]: 2138

Sequence: DPQELQWIYERLVSLF
- P8_MyD88 Rank (after) [13]: 759
- P8_MyD88 Rank (before) [14]: 3018

Sequence: KNLLNELVSKNIRTFM
- Population [12]: 0.00466%

Sequence: DVLYWALTEAGIRVFR
- Rank (after) [5]: 119
- Rank (before) [6]: 128
- Population [7]: 0.015%

Sequence: LADALERYGIMFIIDK
- Rank (after) [5]: 184
- Rank (before) [6]: 236

Sequence: NELVHEWSSKANSVVG
- Rank (after) [8]: 452
- Rank (before) [9]: 3442

Sequence: DPMVAEWVLNHLRFEL
- P8_MyD88 Rank (after) [1]: 193
- P8_MyD88 Rank (before) [2]: 246

Sequence: SSLREGLWPLLELSKK
- Rank (after) [8]: 94
- Rank (before) [9]: 1214

Sequence: KMQKWKDALYEAPNL
- Rank (after) [8]: 113
- Rank (before) [9]: 1321

Sequence: SSFREGLWHLLQLSLK
- P3_MyD88 Rank (after) [3]: 584
- P3_MyD88 Rank (before) [4]: 3198

Sequence: DHHLDLPRGKALKPEMLG
- P3_MyD88 Rank (after) [1]: 200
- P3_MyD88 Rank (before) [2]: 2046

Sequence: PKVGSWRQALEKAGKL
- P3_MyD88 Rank (after) [15]: 560
- P3_MyD88 Rank (before) [16]: 2763

Sequence: AWIREQLRTALKERPP
- P3_MyD88 Rank (after) [3]: 595
- P3_MyD88 Rank (before) [4]: 1975

Sequence: NYGSNSWALNKLLEIL
- P8_MyD88 Rank (after) [15]: 492
- P8_MyD88 Rank (before) [16]: 3834

Sequence: YLRWGYPWFGDRLRFA
- P3_MyD88 Rank (after) [15]: 539
- P3_MyD88 Rank (before) [16]: 1562

Sequence: YTALSYRGFHDFRGNE
- P3_MyD88 Rank (after) [15]: 504
- P3_MyD88 Rank (before) [16]: 1638

Sequence: YAFTGHLHHALRLNKIETF
- Rank (after) [8]: 95
- Rank (before) [9]: 278

Sequence: WALEELRLIMELHSV
- P8_MyD88 Rank (after) [15]: 504
- P8_MyD88 Rank (before) [16]: 1525

Sequence: LQNQWKLALTNSGFHTFRDND
- P3_MyD88 Rank (after) [3]: 585
- P3_MyD88 Rank (before) [4]: 2346

Sequence: DPHGLEWIYERLVSLF
- Rank (after) [10]: 923
- Rank (before) [11]: 2629

Sequence: LKAESCRQALEKSGKR
- P3_MyD88 Rank (after) [3]: 631
- P3_MyD88 Rank (before) [4]: 2533

Sequence: SSFREGVWRLPEMSTK
- P3_MyD88 Rank (after) [3]: 660
- P3_MyD88 Rank (before) [4]: 3149

Sequence: DPQDLEWFYERLVSLIP
- Rank (after) [5]: 453
- Rank (before) [6]: 2884

Sequence: KMQKWNDALYEAAHLR
- P3_MyD88 Rank (after) [3]: 636
- P3_MyD88 Rank (before) [4]: 3714

Sequence: QQISLVQLKVLEESHV
- P8_MyD88 Rank (after) [3]: 648
- P8_MyD88 Rank (before) [4]: 3604

Sequence: NYTSSSWALDEQWNIF
- P8_MyD88 Rank (after) [3]: 653
- P8_MyD88 Rank (before) [4]: 3860

Sequence: RISAFHQQLVMALNTQ
- P3_MyD88 Rank (after) [3]: 614
- P3_MyD88 Rank (before) [4]: 2599

Sequence: DPHDLEWVYERLVSLF
- Rank (after) [10]: 913
- Rank (before) [11]: 2603

Sequence: GPQELEWCYERLVTKF
- P8_MyD88 Rank (after) [3]: 604
- P8_MyD88 Rank (before) [4]: 2278

Sequence: SDVDHLTYLVRVRLCR
- P8_MyD88 Rank (after) [13]: 728
- P8_MyD88 Rank (before) [14]: 3748

Sequence: WALDELLKILYVIATL
- P8_MyD88 Rank (after) [15]: 525
- P8_MyD88 Rank (before) [16]: 1480

Sequence: DWVWDYLLPKLECPSG
- P8_MyD88 Rank (after) [3]: 579
- P8_MyD88 Rank (before) [4]: 2447

Sequence: WALVELLHIRHARELF
- P8_MyD88 Rank (after) [13]: 709
- P8_MyD88 Rank (before) [14]: 1405

Sequence: SSFRRPVASAGTEQK
- Rank (after) [8]: 471
- Rank (before) [9]: 3247

Sequence: DPQDLDWFYERLLS
- Rank (after) [5]: 471
- Rank (before) [6]: 2786

Sequence: LGTHEISKEMKIFATI
- P3_MyD88 Rank (after) [15]: 571
- P3_MyD88 Rank (before) [16]: 2323

Sequence: KNLFNELVHVWSSKANSLVG
- Rank (after) [8]: 148
- Rank (before) [9]: 800

Sequence: NQWRNAQTAAANLNGW
- P3_MyD88 Rank (after) [1]: 256
- P3_MyD88 Rank (before) [2]: 3525

Sequence: YYLDPSHLRKQRGEVD
- Rank (after) [8]: 418
- Rank (before) [9]: 1439

Sequence: SSFRESLWRLLALNKR
- Rank (after) [8]: 395
- Rank (before) [9]: 3228

Sequence: DPQDLEWFYERPVSLF
- P8_MyD88 Rank (after) [1]: 259
- P8_MyD88 Rank (before) [2]: 2853

Sequence: WSQPEFRAAMQAVLEL
- P8_MyD88 Rank (after) [1]: 274
- P8_MyD88 Rank (before) [2]: 530

Sequence: LFWDRLIYAVSDVASA
- Rank (after) [5]: 111
- Rank (before) [6]: 119
- Population [7]: 0.02%

Sequence: PQELEWCYERLVSLIL
- P8_MyD88 Rank (after) [1]: 240
- P8_MyD88 Rank (before) [2]: 3497

Sequence: LKWGDERFWERLVYVM
- P8_MyD88 Rank (after) [1]: 191
- P8_MyD88 Rank (before) [2]: 250

Sequence: YALTCHLHRYLVQRGV
- P3_MyD88 Rank (after) [1]: 204
- P3_MyD88 Rank (before) [2]: 1552

Sequence: DFLNWFYERLVSLFL
- P8_MyD88 Rank (after) [3]: 622
- P8_MyD88 Rank (before) [4]: 2352

Sequence: HLLKEFDKKLIPRLK
- P3_MyD88 Rank (after) [13]: 685
- P3_MyD88 Rank (before) [14]: 2792

Sequence: IDDDHLTYLVRLLQIA
- P8_MyD88 Rank (after) [13]: 761
- P8_MyD88 Rank (before) [14]: 3637

Sequence: DPQDREWFYERLVSLF
- P8_MyD88 Rank (after) [1]: 277
- P8_MyD88 Rank (before) [2]: 2957

Sequence: DPQVLVWLYERPFRQI
- P8_MyD88 Rank (after) [3]: 629
- P8_MyD88 Rank (before) [4]: 2644

Sequence: AVGKETNKIQTPLKNA
- Rank (after) [8]: 177
- Rank (before) [9]: 1886

Sequence: FFSGFRELEDFISKLW
- Rank (after) [5]: 105
- Rank (before) [6]: 108
- Population [7]: 0.02%

Sequence: LKVESWRQALAKAGRL
- P3_MyD88 Rank (after) [1]: 197
- P3_MyD88 Rank (before) [2]: 2486

Sequence: DPQVLDWYYERLVRLF
- P8_MyD88 Rank (after) [3]: 626
- P8_MyD88 Rank (before) [4]: 2646

Sequence: EWIREQRRSALKERLP
- P3_MyD88 Rank (after) [3]: 639
- P3_MyD88 Rank (before) [4]: 2171

Sequence: LSEESWRQALEKAGKL
- P3_MyD88 Rank (after) [1]: 202
- P3_MyD88 Rank (before) [2]: 2375

Sequence: AWVWEYLLPNLVGPAG
- P8_MyD88 Rank (after) [3]: 668
- P8_MyD88 Rank (before) [4]: 2317

Sequence: DYANSSWALDELWLIL
- P8_MyD88 Rank (after) [15]: 510
- P8_MyD88 Rank (before) [16]: 2544

Sequence: EWNRKQKRPDQKERLQ
- P3_MyD88 Rank (after) [3]: 608
- P3_MyD88 Rank (before) [4]: 2185

Sequence: NQWRNALTAAASLSGW
- Population [12]: 0.00291%

Sequence: DYASSTWWLRELLYA
- Rank (after) [5]: 434
- Rank (before) [6]: 1060

Sequence: VQWEDPWFWDKLAYEM
- Rank (after) [5]: 460
- Rank (before) [6]: 2253
